Results from patent US20260285850A1, “SUBSTITUTED OXAZOLIDINONES AND IMIDAZOLINONES AS HERBICIDES” (FMC CORPORATION, priority 2023, published 2026).

Experiments:
Assay type in all cases: in vivo
[1] = test system: oat, wild (wild oat, Avena fatua); assay: Test A postemergence application, visual injury rating 0-100; conditions: 10 days
Outline: (§1)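 Compounds formulated in a non-phytotoxic solvent with surfactant are sprayed onto soil of freshly planted loam-sand pots ahead of emergence, or onto emerged plants 2-10 cm tall. After a 10-day greenhouse period, each species is scored visually for injury against untreated controls.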

corn (Zea mays) [2] = assay: as above; conditions: 10 days
Outline: as §1

soybean (Glycine max) [3] = assay: as above; conditions: 10 days
Outline: as §1

[4] = test system: blackgrass (Alopecurus myosuroides); assay: as above; conditions: 10 days
Outline: as §1

[5] = test system: ryegrass, Italian (italian ryegrass, Lolium multiflorum); assay: as above; conditions: 10 days
Outline: as §1

[6] = test system: galium (catchweed bedstraw, Galium aparine); assay: as above; conditions: 10 days
Outline: as §1

[7] = test system: wheat (Triticum aestivum); assay: as above; conditions: 10 days
Outline: as §1

[8] = test system: horseweed (Erigeron canadensis); assay: as above; conditions: 10 days
Outline: as §1

[9] = test system: palmer (palmer amaranth, palmer pigweed, Amaranthus palmeri); assay: as above; conditions: 10 days
Outline: as §1

[10] = test system: green foxtail (Setaria viridis); assay: as above; conditions: 10 days
Outline: as §1

kochia (Bassia scoparia) [11] = assay: as above; conditions: 10 days
Outline: as §1

[12] = test system: ragweed (common ragweed, Ambrosia artemisiifolia); assay: as above; conditions: 10 days
Outline: as §1

[13] = test system: barnyardgrass (Echinochloa crus-galli); assay: as above; conditions: 10 days
Outline: as §1

[14] = test system: sedge, umbrella (small-flower umbrella sedge, Cyperus difformis); assay: Test B flooded paddy test, visual plant response rating 0-100; conditions: 250 g ai/ha, Flood, applied to paddy water, evaluated after 13 days
Outline: (§2)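 Each species was raised to two leaves before flooding to a 3 cm depth and dosing the water with compound. Injury was assessed by eye after 13 days under greenhouse conditions.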

[15] = test system: ducksalad (Heteranthera limosa); assay: as above; conditions: 250 g ai/ha, Flood, applied to paddy water, evaluated after 13 days
Outline: as §2

[16] = test system: barnyardgrass (Echinochloa crusgalli); assay: as above; conditions: 250 g ai/ha, Flood, applied to paddy water, evaluated after 13 days
Outline: as §2

rice (Oryza sativa) = assay: as above; conditions: 250 g ai/ha, Flood, applied to paddy water, evaluated after 13 days
Outline: as §2

[17] = test system: oat, wild (wild oat, Avena fatua); assay: Test A preemergence soil spray, visual injury rating 0-100; conditions: 10 days, 0 = no effect, 100 = complete control
Outline: as §1

corn (Zea mays) [18] = assay: as above; conditions: 10 days, 0 = no effect, 100 = complete control
Outline: as §1

soybean (Glycine max) [19] = assay: as above; conditions: 10 days, 0 = no effect, 100 = complete control
Outline: as §1

[20] = test system: blackgrass (Alopecurus myosuroides); assay: as above; conditions: 10 days, 0 = no effect, 100 = complete control
Outline: as §1

[21] = test system: ryegrass, Italian (italian ryegrass, Lolium multiflorum); assay: as above; conditions: 10 days, 0 = no effect, 100 = complete control
Outline: as §1

[22] = test system: wheat (Triticum aestivum); assay: as above; conditions: 10 days, 0 = no effect, 100 = complete control
Outline: as §1

[23] = test system: palmer (palmer amaranth, palmer pigweed, Amaranthus palmeri); assay: as above; conditions: 10 days, 0 = no effect, 100 = complete control
Outline: as §1

[24] = test system: green foxtail (Setaria viridis); assay: as above; conditions: 10 days, 0 = no effect, 100 = complete control
Outline: as §1

kochia (Bassia scoparia) [25] = assay: as above; conditions: 10 days, 0 = no effect, 100 = complete control
Outline: as §1

[26] = test system: ragweed (common ragweed, Ambrosia artemisiifolia); assay: as above; conditions: 10 days, 0 = no effect, 100 = complete control
Outline: as §1

[27] = test system: barnyardgrass (Echinochloa crus-galli); assay: as above; conditions: 10 days, 0 = no effect, 100 = complete control
Outline: as §1

[28] = 31 g ai/ha, postemergence, 0 = no effect, 100 = complete control
[29] = Postemergence, 125 g ai/ha, 0 is no effect, 100 is complete control

COC(=O)C1CC(NC(=O)C2(C)CN(c3cc(F)cc(F)c3)C(=O)O2)CO1 (stereo not shown) [Compound 29]
Oat, Wild plant response rating (0-100) [1, 28]: 80
Oat, Wild plant response rating (0 to 100 scale) [1, 29]: 90
Corn plant response rating (0-100) (corn (Zea mays) [2]; [28]): 0
Corn plant response rating (0 to 100 scale) (corn (Zea mays) [2]; [29]): 70
Soybean plant response rating (0-100) (soybean (Glycine max) [3]; [28]): 0
Soybean plant response rating (0 to 100 scale) (soybean (Glycine max) [3]; [29]): 50
Blackgrass plant response rating (0-100) [4, 28]: 90
Blackgrass plant response rating (0 to 100 scale) [4, 29]: 90
Ryegrass, Italian plant response rating (0-100) [5, 28]: 50
Ryegrass, Italian plant response rating (0 to 100 scale) [5, 29]: 90
Galium plant response rating (0-100) [6, 28]: 50
Galium plant response rating (0 to 100 scale) [6, 29]: 80
Wheat plant response rating (0-100) [7, 28]: 80
Wheat plant response rating (0 to 100 scale) [7, 29]: 90
Horseweed plant response rating (0-100) [8, 28]: 0
Horseweed plant response rating (0 to 100 scale) [8, 29]: 20
Amaranth, Palmer plant response rating (0-100) [9, 28]: 0
Amaranth, Palmer / Pigweed, Palmer plant response rating (0 to 100 scale) [9, 29]: 60
Foxtail, Green plant response rating (0-100) [10, 28]: 0
Foxtail, Green plant response rating (0 to 100 scale) [10, 29]: 80
Kochia plant response rating (0-100) (kochia (Bassia scoparia) [11]; [28]): 20
Kochia plant response rating (0 to 100 scale) (kochia (Bassia scoparia) [11]; [29]): 40
Ragweed plant response rating (0-100) [12, 28]: 30
Ragweed plant response rating (0 to 100 scale) [12, 29]: 30
Barnyardgrass plant response rating (0-100) [13, 28]: 10
Barnyardgrass plant response rating (0 to 100 scale) [13, 29]: 80
Plant response rating, Sedge, Umbrella (0 to 100 scale, 0 is no effect and 100 is complete control) [14]: 0
Plant response rating, Ducksalad (0 to 100 scale, 0 is no effect and 100 is complete control) [15]: 0
Plant response rating, Barnyardgrass (0 to 100 scale, 0 is no effect and 100 is complete control) [16]: 0
Plant response rating, Rice (0 to 100 scale, 0 is no effect and 100 is complete control) (rice (Oryza sativa)): 0
Oat, Wild plant response rating (0-100) ([17]; 31 g ai/ha): 0
Oat, Wild plant response rating (0 to 100 scale) ([17]; 125 g ai/ha): 60
Corn plant response rating (0-100) (corn (Zea mays) [18]; 31 g ai/ha): 0
Corn plant response rating (0 to 100 scale) (corn (Zea mays) [18]; 125 g ai/ha): 0
Soybean plant response rating (0-100) (soybean (Glycine max) [19]; 31 g ai/ha): 0
Soybean plant response rating (0 to 100 scale) (soybean (Glycine max) [19]; 125 g ai/ha): 0
Blackgrass plant response rating (0-100) ([20]; 31 g ai/ha): 0
Blackgrass plant response rating (0 to 100 scale) ([20]; 125 g ai/ha): 50
Ryegrass, Italian plant response rating (0-100) ([21]; 31 g ai/ha): 0
Ryegrass, Italian plant response rating (0 to 100 scale) ([21]; 125 g ai/ha): 30
Wheat plant response rating (0-100) ([22]; 31 g ai/ha): 0
Wheat plant response rating (0 to 100 scale) ([22]; 125 g ai/ha): 80
Amaranth, Palmer plant response rating (0-100) ([23]; 31 g ai/ha): 0
Amaranth, Palmer plant response rating (0 to 100 scale) ([23]; 125 g ai/ha): 0
Foxtail, Green plant response rating (0-100) ([24]; 31 g ai/ha): 0
Foxtail, Green plant response rating (0 to 100 scale) ([24]; 125 g ai/ha): 0
Kochia plant response rating (0-100) (kochia (Bassia scoparia) [25]; 31 g ai/ha): 0
Kochia plant response rating (0 to 100 scale) (kochia (Bassia scoparia) [25]; 125 g ai/ha): 0
Ragweed plant response rating (0-100) ([26]; 31 g ai/ha): 0
Ragweed plant response rating (0 to 100 scale) ([26]; 125 g ai/ha): 0
Barnyardgrass plant response rating (0-100) ([27]; 31 g ai/ha): 0
Barnyardgrass plant response rating (0 to 100 scale) ([27]; 125 g ai/ha): 20
